Data: ChEMBL document CHEMBL5126566, “Comparison of three zinc binding groups for HDAC inhibitors - A potency, selectivity and enzymatic kinetics study” (Bioorg Med Chem Lett, 2022)
Calls of active or inactive are those of the source. The calls are words filed in the database; no cut-off is given here.

Tests used:
Histone deacetylase 1 [1] = target: T1, Histone deacetylase 1 (Homo sapiens, UniProt Q13547); assay: Inhibition of HDAC1 (unknown origin)
Histone deacetylase 2 [2] = target: T2, Histone deacetylase 2 (Homo sapiens, UniProt Q92769); assay: Inhibition of HDAC2 (unknown origin) preincubated for 5 mins
T2 sequence (Q92769 whole entry): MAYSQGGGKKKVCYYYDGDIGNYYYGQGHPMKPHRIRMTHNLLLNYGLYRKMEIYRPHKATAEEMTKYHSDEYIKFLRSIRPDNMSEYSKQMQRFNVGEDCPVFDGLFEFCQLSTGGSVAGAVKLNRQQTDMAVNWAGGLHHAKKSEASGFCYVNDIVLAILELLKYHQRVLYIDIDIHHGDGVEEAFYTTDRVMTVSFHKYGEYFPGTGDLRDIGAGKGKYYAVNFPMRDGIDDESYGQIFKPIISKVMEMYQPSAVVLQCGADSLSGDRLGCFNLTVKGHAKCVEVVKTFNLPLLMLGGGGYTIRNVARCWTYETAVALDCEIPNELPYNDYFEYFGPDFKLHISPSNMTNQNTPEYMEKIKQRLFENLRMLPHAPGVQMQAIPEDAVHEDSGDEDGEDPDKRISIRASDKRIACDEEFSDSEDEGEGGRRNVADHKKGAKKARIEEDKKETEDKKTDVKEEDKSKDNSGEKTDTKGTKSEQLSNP

Histone deacetylase 2 [3] = target: T2, Histone deacetylase 2; assay: Inhibition of HDAC2 (unknown origin)
Histone deacetylase 7 = target: T3, Histone deacetylase 7 (Homo sapiens, UniProt Q8WUI4); assay: Inhibition of HDAC7 (unknown origin)
T3 sequence (Q8WUI4 whole entry): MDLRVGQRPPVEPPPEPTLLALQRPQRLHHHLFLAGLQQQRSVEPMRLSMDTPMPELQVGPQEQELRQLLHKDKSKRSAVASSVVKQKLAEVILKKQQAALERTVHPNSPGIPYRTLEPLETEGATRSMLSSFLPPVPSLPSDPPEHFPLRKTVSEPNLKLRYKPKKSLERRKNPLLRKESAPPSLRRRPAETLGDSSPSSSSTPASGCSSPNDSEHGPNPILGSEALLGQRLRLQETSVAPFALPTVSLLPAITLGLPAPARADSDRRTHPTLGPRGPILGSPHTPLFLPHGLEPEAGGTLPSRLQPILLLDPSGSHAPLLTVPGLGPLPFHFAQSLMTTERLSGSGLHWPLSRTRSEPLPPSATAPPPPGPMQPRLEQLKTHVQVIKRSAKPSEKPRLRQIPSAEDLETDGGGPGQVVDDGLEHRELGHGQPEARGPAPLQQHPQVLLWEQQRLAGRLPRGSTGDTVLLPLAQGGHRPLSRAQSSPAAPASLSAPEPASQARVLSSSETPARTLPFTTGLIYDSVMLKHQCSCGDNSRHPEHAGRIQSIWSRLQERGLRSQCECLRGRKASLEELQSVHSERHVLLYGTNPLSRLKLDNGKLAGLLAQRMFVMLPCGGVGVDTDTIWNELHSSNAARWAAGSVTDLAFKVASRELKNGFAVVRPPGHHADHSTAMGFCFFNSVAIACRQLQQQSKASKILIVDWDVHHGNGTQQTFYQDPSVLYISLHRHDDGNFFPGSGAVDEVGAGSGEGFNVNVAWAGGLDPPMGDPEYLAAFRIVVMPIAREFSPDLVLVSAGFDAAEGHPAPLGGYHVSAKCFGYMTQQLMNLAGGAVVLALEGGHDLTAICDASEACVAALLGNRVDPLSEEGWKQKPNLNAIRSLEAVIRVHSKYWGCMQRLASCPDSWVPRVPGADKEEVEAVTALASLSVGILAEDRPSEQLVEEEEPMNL

Histone deacetylase 9 = Histone deacetylase 9 (Homo sapiens, UniProt Q9UKV0); assay: Inhibition of HDAC9 (unknown origin)
Sequence of Histone deacetylase 9 (Q9UKV0 whole entry): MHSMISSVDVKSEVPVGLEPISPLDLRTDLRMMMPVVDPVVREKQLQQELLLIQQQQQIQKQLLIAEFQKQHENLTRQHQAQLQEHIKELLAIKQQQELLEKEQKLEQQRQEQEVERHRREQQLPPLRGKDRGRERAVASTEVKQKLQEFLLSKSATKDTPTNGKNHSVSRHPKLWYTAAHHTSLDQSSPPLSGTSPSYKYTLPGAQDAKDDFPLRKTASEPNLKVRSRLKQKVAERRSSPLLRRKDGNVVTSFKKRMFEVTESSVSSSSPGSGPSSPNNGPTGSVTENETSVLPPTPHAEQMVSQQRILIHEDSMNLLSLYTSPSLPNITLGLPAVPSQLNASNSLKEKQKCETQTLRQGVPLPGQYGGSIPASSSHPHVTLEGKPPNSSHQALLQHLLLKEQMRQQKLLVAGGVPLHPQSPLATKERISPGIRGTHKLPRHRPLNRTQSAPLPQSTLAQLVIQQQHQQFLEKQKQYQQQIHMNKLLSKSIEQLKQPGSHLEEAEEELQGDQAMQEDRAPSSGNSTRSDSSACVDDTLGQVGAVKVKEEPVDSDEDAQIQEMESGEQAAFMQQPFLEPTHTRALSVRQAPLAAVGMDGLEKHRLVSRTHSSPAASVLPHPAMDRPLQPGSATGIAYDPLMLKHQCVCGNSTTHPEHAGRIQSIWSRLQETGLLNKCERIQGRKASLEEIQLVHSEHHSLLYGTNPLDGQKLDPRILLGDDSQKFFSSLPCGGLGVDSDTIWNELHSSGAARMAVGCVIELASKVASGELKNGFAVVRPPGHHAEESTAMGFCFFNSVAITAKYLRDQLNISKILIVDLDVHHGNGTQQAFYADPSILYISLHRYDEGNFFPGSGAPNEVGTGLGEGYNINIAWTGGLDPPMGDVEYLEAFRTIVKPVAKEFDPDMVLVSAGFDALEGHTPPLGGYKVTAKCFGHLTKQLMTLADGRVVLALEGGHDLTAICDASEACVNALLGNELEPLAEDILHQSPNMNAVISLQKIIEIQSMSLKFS

Histone deacetylase 2 [4] = target: T2, Histone deacetylase 2; assay: Inhibition of HDAC2 (unknown origin) preincubated for 120 mins
Histone deacetylase 1 [5] = target: T1, Histone deacetylase 1; assay: Inhibition of HDAC1 (unknown origin) preincubated for 120 mins
Histone deacetylase 1 [6] = target: T1, Histone deacetylase 1; assay: Competitive inhibition of HDAC1 (unknown origin) at 444 to 1500 nM by Lineweaver-Burk plot analysis; settings: dose 444-1500 nM
Histone deacetylase 2 [7] = target: T2, Histone deacetylase 2; assay: Inhibition of HDAC2 (unknown origin) preincubated for 30 mins
Histone deacetylase 1 [8] = target: T1, Histone deacetylase 1; assay: Inhibition of HDAC1 (unknown origin) preincubated for 90 mins
Histone deacetylase 3 [9] = target: T4, Histone deacetylase 3 (Homo sapiens, UniProt O15379); assay: Inhibition of HDAC3 (unknown origin) preincubated for 60 mins
T4 sequence (O15379 whole entry): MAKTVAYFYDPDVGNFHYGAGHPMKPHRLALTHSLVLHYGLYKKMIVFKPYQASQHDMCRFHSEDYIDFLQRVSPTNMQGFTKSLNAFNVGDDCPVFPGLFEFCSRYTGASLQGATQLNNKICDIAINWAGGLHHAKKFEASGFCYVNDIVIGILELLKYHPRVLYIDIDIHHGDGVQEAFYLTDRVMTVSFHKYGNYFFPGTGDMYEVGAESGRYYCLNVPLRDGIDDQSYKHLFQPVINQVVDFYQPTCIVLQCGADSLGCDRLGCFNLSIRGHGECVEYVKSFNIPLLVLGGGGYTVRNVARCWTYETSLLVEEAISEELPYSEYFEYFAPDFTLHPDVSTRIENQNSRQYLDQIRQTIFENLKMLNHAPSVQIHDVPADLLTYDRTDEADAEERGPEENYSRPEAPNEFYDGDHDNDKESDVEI

Histone deacetylase 2 [10] = target: T2, Histone deacetylase 2; assay: Inhibition of HDAC2 (unknown origin) preincubated for 60 mins
Histone deacetylase 1 [11] = target: T1, Histone deacetylase 1; assay: Inhibition of HDAC1 (unknown origin) preincubated for 60 mins
Histone deacetylase 3 [12] = target: T4, Histone deacetylase 3; assay: Inhibition of HDAC3 (unknown origin) preincubated for 30 mins
Histone deacetylase 3 [13] = target: T4, Histone deacetylase 3; assay: Inhibition of HDAC3 (unknown origin) preincubated for 5 mins
Histone deacetylase 3 [14] = target: T4, Histone deacetylase 3; assay: Competitive inhibition of HDAC3 (unknown origin) at 444 to 1500 nM by Lineweaver-Burk plot analysis; settings: dose 444-1500 nM
Histone deacetylase 1 [15] = target: T1, Histone deacetylase 1; assay: Inhibition of HDAC1 (unknown origin) preincubated for 5 mins
MV4-11 = assay: Antiproliferative activity against human MV4-11 cells; type: functional, cell-based
Histone deacetylase 2 [16] = target: T2, Histone deacetylase 2; assay: Inhibition of HDAC2 (unknown origin) preincubated for 90 mins
Histone deacetylase 1 [17] = target: T1, Histone deacetylase 1; assay: Inhibition of HDAC1 (unknown origin) preincubated for 30 mins
Histone deacetylase 8 = target: T5, Histone deacetylase 8 (Homo sapiens, UniProt Q9BY41); assay: Inhibition of HDAC8 (unknown origin)
T5 sequence (Q9BY41 whole entry): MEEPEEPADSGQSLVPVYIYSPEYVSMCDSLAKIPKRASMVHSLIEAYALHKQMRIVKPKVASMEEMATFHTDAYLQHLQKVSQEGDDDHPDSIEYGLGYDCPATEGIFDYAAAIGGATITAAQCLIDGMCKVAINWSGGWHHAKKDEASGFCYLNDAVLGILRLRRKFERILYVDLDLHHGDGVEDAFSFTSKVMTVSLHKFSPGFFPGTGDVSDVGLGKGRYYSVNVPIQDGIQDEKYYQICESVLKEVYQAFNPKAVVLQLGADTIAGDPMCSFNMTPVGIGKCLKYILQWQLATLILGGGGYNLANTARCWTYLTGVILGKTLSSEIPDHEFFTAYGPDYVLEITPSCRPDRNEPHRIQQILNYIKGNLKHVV

Histone deacetylase 3 [18] = target: T4, Histone deacetylase 3; assay: Inhibition of HDAC3 (unknown origin) preincubated for 90 mins
Histone deacetylase 2 [19] = target: T2, Histone deacetylase 2; assay: Competitive inhibition of HDAC2 (unknown origin) at 444 to 1500 nM by Lineweaver-Burk plot analysis; settings: dose 444-1500 nM
Histone deacetylase 4 = Histone deacetylase 4 (Homo sapiens, UniProt P56524); assay: Inhibition of HDAC4 (unknown origin)
Sequence of Histone deacetylase 4 (P56524 whole entry): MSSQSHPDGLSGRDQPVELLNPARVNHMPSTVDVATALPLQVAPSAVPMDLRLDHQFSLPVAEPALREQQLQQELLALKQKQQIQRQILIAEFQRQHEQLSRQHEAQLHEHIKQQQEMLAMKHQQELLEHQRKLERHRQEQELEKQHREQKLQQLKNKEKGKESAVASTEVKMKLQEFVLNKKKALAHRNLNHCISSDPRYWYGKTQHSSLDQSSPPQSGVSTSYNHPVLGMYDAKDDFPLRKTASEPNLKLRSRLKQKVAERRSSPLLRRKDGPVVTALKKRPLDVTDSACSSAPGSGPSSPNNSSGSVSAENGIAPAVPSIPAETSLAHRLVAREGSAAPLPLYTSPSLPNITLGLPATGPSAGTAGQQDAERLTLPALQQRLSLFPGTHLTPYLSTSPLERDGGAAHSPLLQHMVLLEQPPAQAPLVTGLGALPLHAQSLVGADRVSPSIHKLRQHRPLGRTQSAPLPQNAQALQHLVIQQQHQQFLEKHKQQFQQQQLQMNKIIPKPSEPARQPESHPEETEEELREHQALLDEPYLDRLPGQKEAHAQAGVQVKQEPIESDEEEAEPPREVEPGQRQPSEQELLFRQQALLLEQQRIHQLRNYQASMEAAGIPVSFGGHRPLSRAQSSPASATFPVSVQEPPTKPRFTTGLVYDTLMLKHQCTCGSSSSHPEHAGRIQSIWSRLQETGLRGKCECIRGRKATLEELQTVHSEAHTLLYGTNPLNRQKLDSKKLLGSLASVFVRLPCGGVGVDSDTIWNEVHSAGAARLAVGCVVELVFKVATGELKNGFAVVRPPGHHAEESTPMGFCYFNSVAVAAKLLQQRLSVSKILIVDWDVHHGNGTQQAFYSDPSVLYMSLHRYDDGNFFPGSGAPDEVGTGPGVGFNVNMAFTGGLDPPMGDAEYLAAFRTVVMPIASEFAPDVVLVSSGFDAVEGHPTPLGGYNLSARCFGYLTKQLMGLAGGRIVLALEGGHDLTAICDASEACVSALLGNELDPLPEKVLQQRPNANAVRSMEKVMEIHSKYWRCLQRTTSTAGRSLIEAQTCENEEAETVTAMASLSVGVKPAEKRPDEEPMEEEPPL

Histone deacetylase 3 [20] = target: T4, Histone deacetylase 3; assay: Inhibition of HDAC3 (unknown origin)
Histone deacetylase 11 = target: T6, Histone deacetylase 11 (Homo sapiens, UniProt Q96DB2); assay: Inhibition of HDAC11 (unknown origin)
T6 sequence (Q96DB2 whole entry): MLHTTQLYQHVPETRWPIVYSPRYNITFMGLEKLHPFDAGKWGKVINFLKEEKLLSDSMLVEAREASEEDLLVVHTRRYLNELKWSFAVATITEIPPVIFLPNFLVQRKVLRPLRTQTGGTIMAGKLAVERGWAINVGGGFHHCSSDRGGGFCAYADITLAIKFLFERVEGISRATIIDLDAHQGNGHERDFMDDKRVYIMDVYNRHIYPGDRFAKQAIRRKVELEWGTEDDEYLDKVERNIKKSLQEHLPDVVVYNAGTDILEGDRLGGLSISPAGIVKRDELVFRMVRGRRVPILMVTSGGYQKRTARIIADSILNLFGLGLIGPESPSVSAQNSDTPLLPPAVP

Histone deacetylase 5 = Histone deacetylase 5 (Homo sapiens, UniProt Q9UQL6); assay: Inhibition of HDAC5 (unknown origin)
Sequence of Histone deacetylase 5 (Q9UQL6 whole entry): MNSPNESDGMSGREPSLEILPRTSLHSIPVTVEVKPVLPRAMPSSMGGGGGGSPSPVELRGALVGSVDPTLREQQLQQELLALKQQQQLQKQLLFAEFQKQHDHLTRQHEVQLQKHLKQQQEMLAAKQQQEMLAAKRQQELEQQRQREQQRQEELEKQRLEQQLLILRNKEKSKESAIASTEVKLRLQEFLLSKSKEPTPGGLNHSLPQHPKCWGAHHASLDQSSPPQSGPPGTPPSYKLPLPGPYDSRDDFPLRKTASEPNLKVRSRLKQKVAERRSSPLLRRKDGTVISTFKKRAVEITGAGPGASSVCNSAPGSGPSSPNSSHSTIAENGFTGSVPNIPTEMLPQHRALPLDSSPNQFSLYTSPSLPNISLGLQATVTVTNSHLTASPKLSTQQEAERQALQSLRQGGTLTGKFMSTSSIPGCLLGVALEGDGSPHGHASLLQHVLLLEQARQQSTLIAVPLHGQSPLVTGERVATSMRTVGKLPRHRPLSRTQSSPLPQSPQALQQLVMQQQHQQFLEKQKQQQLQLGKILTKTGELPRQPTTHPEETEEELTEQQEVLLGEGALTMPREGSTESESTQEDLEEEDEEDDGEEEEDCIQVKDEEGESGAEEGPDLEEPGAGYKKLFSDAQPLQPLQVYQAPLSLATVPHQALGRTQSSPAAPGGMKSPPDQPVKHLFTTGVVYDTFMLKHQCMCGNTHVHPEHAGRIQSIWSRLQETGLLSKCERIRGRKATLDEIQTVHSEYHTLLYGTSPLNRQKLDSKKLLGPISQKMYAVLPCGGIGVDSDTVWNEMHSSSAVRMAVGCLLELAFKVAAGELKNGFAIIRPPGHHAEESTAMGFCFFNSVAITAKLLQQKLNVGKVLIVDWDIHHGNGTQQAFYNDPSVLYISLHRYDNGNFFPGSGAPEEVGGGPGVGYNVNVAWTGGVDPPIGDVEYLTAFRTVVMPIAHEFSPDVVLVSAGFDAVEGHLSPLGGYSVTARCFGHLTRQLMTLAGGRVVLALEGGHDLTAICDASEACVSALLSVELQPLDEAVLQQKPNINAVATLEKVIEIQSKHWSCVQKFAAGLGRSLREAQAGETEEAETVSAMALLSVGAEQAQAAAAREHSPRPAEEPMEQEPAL

[21] = target: T7, Polyamine deacetylase HDAC10 (Homo sapiens, UniProt Q969S8); assay: Inhibition of HDAC10 (unknown origin)
T7 sequence (Q969S8 whole entry): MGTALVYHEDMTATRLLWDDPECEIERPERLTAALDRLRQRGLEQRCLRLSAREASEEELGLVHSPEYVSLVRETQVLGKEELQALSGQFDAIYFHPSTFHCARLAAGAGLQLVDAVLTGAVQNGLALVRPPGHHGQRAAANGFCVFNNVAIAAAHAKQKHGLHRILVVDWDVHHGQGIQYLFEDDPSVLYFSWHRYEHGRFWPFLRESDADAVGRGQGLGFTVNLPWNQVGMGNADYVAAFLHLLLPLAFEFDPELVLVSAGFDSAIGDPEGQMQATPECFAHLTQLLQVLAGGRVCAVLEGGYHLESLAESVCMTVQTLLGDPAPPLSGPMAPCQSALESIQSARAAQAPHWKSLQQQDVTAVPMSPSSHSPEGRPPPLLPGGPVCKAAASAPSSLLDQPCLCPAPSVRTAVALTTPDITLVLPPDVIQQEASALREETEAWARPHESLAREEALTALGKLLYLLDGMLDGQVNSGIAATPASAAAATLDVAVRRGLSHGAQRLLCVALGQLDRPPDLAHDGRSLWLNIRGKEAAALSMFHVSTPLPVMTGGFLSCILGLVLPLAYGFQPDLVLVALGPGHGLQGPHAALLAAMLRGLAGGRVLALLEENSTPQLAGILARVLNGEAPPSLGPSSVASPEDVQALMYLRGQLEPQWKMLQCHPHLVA

[22] = target: T8, Protein deacetylase HDAC6 (Homo sapiens, UniProt Q9UBN7); assay: Inhibition of HDAC6 (unknown origin)
T8 sequence (Q9UBN7 whole entry): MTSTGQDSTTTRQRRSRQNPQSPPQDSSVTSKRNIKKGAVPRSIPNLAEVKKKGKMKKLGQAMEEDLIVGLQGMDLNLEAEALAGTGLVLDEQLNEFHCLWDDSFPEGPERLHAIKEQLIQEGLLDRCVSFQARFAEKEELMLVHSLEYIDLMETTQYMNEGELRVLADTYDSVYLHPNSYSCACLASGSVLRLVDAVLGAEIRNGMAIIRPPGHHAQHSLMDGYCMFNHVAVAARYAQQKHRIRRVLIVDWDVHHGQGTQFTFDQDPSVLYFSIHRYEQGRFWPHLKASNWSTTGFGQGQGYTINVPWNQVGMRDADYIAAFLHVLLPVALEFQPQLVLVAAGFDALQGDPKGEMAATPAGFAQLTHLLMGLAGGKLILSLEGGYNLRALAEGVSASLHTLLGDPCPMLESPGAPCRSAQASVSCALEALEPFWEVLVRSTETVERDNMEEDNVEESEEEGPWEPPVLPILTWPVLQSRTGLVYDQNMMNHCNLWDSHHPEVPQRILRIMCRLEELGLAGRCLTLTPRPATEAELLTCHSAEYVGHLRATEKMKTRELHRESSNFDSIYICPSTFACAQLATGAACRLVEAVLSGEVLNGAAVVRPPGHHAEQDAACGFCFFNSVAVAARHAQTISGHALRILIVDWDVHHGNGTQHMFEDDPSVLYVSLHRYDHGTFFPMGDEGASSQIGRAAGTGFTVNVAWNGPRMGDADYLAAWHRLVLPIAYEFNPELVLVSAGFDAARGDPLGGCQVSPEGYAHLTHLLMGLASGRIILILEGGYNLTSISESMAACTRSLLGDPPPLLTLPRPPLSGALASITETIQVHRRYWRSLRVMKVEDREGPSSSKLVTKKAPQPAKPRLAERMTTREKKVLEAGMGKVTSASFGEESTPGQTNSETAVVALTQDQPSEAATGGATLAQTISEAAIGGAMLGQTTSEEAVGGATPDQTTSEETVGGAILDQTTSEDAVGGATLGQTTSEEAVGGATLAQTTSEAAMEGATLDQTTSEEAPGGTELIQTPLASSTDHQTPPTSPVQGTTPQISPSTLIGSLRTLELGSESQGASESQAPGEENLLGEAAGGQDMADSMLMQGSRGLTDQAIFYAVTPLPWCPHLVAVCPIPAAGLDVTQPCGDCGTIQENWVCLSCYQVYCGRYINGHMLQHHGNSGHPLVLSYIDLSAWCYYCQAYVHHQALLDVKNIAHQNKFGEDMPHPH

Histone deacetylase 3 [23] = target: T4, Histone deacetylase 3; assay: Inhibition of HDAC3 (unknown origin) preincubated for 120 mins

T1 sequence (Q13547 whole entry): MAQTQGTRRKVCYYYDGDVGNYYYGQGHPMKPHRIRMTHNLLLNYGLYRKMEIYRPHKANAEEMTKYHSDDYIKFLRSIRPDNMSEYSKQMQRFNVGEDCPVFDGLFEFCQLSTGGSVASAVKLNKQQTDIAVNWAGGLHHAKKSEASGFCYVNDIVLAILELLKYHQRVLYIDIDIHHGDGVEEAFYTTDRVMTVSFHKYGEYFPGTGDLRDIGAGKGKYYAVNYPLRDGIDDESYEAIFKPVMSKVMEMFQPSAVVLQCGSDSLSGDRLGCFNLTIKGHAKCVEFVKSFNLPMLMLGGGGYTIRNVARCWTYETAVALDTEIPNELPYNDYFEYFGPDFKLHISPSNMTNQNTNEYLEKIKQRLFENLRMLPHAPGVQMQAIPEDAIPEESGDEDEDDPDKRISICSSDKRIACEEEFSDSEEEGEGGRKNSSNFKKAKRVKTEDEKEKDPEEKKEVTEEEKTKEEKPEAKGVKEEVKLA

## Nc1ccccc1NC(=O)CCCCCCC(=O)Nc1ccccc1
Histone deacetylase 1 [1]
  IC50: 0.828 µM
Histone deacetylase 2 [2]
  IC50: 1.16 µM
Histone deacetylase 2 [3]
  IC50: 0.53 µM
Histone deacetylase 7
  IC50: > 10 µM
Histone deacetylase 9
  IC50: > 10 µM
Histone deacetylase 2 [4]
  IC50: 1.27 µM
Histone deacetylase 1 [5]
  IC50: 1.07 µM
Histone deacetylase 1 [6]
  inhibition: Active
Histone deacetylase 2 [7]
  IC50: 1.17 µM
Histone deacetylase 1 [8]
  IC50: 1.22 µM
Histone deacetylase 3 [9]
  IC50: 0.535 µM
Histone deacetylase 2 [10]
  IC50: 1.17 µM
Histone deacetylase 1 [11]
  IC50: 1.14 µM
Histone deacetylase 3 [12]
  IC50: 0.559 µM
Histone deacetylase 3 [13]
  IC50: 0.659 µM
Histone deacetylase 3 [14]
  inhibition: Active
Histone deacetylase 1 [15]
  IC50: 0.944 µM
MV4-11
  IC50: 7.24 µM
Histone deacetylase 2 [16]
  IC50: 1.36 µM
Histone deacetylase 1 [17]
  IC50: 0.91 µM
Histone deacetylase 8
  IC50: > 10 µM
Histone deacetylase 3 [18]
  IC50: 0.391 µM
Histone deacetylase 2 [19]
  inhibition: Active
Histone deacetylase 4
  IC50: > 10 µM
Histone deacetylase 3 [20]
  IC50: 0.379 µM
Histone deacetylase 11
  IC50: > 10 µM
Histone deacetylase 5
  IC50: > 10 µM
[21]
  IC50: > 10 µM
[22]
  IC50: > 10 µM
Histone deacetylase 3 [23]
  IC50: 0.463 µM
